Reference: ChEMBL document CHEMBL3784999, “Investigation of 4-amino-5-alkynylpyrimidine-2(1H)-ones as anti-mycobacterial agents” (Bioorg Med Chem, 2016)
In brackets after ≈: the same amount, converted by molar mass.

Tests used:
[1] = test system: Mycobacterium avium; assay: Antimycobacterial activity against Mycobacterium avium ATCC 25291 assessed as inhibition of mycobacterial replication after 6 days by microplate Alamar blue assay; format: functional, Mycobacterium avium subsp. avium ATCC 25291; conditions: ATCC 25291, 144 h
[2] = test system: Mycobacterium tuberculosis; assay: Antimycobacterial activity against Mycobacterium tuberculosis H37Ra assessed as inhibition of mycobacterial replication after 6 days by microplate Alamar blue assay; format: functional; conditions: 144 h
[3] = test system: Mycobacterium tuberculosis; assay: Antimycobacterial activity against Mycobacterium tuberculosis H37Ra assessed as inhibition of mycobacterial replication at 200 ug/ml after 6 days by microplate Alamar blue assay; format: functional; conditions: 144 h
[4] = test system: Mycobacterium tuberculosis; assay: Antimycobacterial activity against Mycobacterium tuberculosis H37Ra assessed as inhibition of mycobacterial replication at 50 ug/ml after 6 days by microplate Alamar blue assay; format: functional; conditions: 144 h
[5] = Cytotoxicity against African green monkey Vero cells assessed as cell viability after 3 days by XTT assay; format: cell-based; conditions: chlorocebus sabaeus

Row | Structure (SMILES) | MIC90 [1] | MIC50 [2] | inhibition at 200 µg/mL [3] | inhibition at 50 µg/mL [4] | CC50 at 72 h [5]
1 | CC[C@H]1OC(=O)[C@H](C)[C@@H](O[C@H]2C[C@@](C)(OC)[C@@H](O)[C@H](C)O2)[C@H](C)[C@@H](O[C@@H]2O[C@H](C)C[C@H](N(C)C)[C@H]2O)[C@](C)(OC)C[C@@H](C)C(=O)[C@H](C)[C@@H](O)[C@]1(C)O [CLARITHROMYCIN] | 2 µg/mL (≈ 2.67 µM) | – | – | – | –
2 | CCCCCCCCC#Cc1c[nH]c(=O)nc1N | – | 50 µg/mL (≈ 202 µM) | 100% | 50% | > 200 µg/mL
